Earlier results on 3 molecules are cited in patent US20110251243A1, “Method and Kit for Assessing a Patient's Genetic Information, Lifestyle and Environment Conditions, and Providing a Tailored Therapeutic Regime” (priority 2005, published 2011).

For data set [1] the following is noted: in the majority of people.
A further data set relates to smokers. The settings on record: women with at least one Taq1A allele compared to women with both common alleles.

Where two headings read alike, the source gives them in different places.

In the case of `CCc1c2c(nc3ccc(OC(=O)N4CCC(N5CCCCC5)CC4)cc13)-c1cc3c(c(=O)n1C2)COC(=O)[C@]3(O)CC` [Irinotecan], the chance of neutropenia in the data set with patients (heterozygotes (6/7)) is 12.5%. In addition, in the data set with patients (homozygous 7/7 genotype in UGT1A1*28), the likelihood of neutropenia is 50%. For the same molecule, in the data set with patients (in vivo), the fatality entry is “up to 5%”; the “severe diarrhoea and neutropenia, share of patients” value is recorded as 20-35%. In the data set on patients (wild type (homozygous 6/6 genotype)), the chance of neutropenia result is listed as “roughly 0%”.

As to `CN1CCCC1c1cccnc1` (stereo not shown) [nicotine], the “share metabolized to cotinine by C-oxidation” value in data set [1] is listed as 70% to 80.

Regarding `CC(NC(C)(C)C)C(=O)c1cccc(Cl)c1` (stereo not shown) [bupropion], the “smoking status at 12 months” value in the data set on smokers is “more likely to be still smoking”.
